Assay results reported in ChEMBL document CHEMBL1147599 (Bioorg Med Chem Lett, 2004).

What follows are compounds tested against T1, Neuropeptide Y receptor type 2 (Homo sapiens, UniProt P49146) (assay: Binding affinity towards the NPY Y2 receptor).
T1 sequence (P49146 whole entry): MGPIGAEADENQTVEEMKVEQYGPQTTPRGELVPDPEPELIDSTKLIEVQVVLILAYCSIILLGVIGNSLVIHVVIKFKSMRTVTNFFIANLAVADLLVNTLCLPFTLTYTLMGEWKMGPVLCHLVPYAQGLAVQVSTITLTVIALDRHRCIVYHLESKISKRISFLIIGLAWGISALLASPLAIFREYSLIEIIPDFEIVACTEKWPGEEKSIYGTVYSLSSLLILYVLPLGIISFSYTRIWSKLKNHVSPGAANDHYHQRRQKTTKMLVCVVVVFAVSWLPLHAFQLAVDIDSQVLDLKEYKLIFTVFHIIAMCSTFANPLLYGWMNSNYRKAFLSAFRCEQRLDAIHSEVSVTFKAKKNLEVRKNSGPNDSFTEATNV
For `CC(=O)N1CCc2ccc(N(C3CCN(Cc4ccccc4)CC3)S(=O)(=O)/C=C/c3ccccc3)cc21`, the IC50 was 30 µM. Compound `CC(=O)N1CCc2ccc(N(C(=O)/C=C/c3ccccc3)C3CCN(Cc4ccccc4)C3)cc21` (stereo not drawn) has an IC50 of 17.5 µM. With `CC(=O)N1CCc2ccc(N(C/C=C/c3ccccc3)C3CCN(Cc4ccccc4)CC3)cc21` the IC50 was 30 µM.
